These results are taken from US20170210778A1, “NOVEL COMPOUNDS” (The Provost, Fellows, Foundation Scholars, and the other …, priority 2014, published 2017).

Structures are written as SMILES.

The test system of test [1] is LPM in the peritoneal cavity. Put plainly: Numbers of LPM in the peritoneal cavity after i.p. injection. The test is classed as in vivo. Conditions: injected i.p. into mice; FIG. 1B.
The target in another test is T1, human NOD1 (Homo sapiens, UniProt Q9Y239).
T1 construct: expressed in transfected cells; host or cells: HEK293
T1 sequence (Q9Y239 1-953): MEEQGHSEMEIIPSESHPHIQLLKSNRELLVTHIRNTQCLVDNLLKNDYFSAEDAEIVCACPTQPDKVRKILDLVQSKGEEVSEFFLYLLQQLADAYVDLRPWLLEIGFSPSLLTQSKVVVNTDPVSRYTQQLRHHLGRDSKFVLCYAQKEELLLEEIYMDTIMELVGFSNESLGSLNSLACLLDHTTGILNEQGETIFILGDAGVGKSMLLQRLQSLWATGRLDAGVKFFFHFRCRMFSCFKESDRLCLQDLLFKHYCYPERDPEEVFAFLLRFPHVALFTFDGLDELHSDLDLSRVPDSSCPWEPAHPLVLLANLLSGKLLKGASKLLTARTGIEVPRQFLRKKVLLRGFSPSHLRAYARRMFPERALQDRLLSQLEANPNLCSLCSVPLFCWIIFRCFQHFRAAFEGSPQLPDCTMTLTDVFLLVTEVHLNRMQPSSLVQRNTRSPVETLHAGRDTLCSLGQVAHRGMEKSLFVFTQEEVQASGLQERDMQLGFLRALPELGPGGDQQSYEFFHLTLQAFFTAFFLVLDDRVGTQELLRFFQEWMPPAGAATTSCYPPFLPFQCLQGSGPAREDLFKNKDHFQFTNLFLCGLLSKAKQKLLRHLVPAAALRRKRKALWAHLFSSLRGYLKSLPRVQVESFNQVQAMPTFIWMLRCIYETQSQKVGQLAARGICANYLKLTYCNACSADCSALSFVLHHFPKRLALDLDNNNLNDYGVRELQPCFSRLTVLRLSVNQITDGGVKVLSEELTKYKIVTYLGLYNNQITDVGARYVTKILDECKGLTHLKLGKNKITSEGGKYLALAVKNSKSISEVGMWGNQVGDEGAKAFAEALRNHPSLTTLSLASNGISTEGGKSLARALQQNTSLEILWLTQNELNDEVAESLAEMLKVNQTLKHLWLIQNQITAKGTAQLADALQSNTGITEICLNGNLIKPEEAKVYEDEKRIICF
Put plainly: NOD1 functional agonist assay, 293hNOD1-SEAP reporter cells. It is filed as cell-based. Conditions: 293hNOD1 cells, OD above 3*O.D of negative control. The method, boiled down:
(§1)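 Stably transfected HEK293 cells overexpressing human or murine NOD1 with an NF-κB/AP-1-inducible SEAP reporter; secreted SEAP detected colorimetrically, absorbance read at 620/655 nm. Value is the lowest concentration giving mean OD above 3× the endotoxin-free water negative control; parental 293 SEAP cells lacking NOD1 served as counter-control.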

The subject of the next test is PEC. Put plainly: IL-10 production by PEC in vitro. The following applies: 24 h stimulation, FIG. 1A. It is filed as cell-based.
The next test concerns the target T2, murine NOD1 (Mus musculus, UniProt Q8BHB0).
T2 construct: expressed in transfected cells; host or cells: HEK293
T2 sequence (Q8BHB0 1-953): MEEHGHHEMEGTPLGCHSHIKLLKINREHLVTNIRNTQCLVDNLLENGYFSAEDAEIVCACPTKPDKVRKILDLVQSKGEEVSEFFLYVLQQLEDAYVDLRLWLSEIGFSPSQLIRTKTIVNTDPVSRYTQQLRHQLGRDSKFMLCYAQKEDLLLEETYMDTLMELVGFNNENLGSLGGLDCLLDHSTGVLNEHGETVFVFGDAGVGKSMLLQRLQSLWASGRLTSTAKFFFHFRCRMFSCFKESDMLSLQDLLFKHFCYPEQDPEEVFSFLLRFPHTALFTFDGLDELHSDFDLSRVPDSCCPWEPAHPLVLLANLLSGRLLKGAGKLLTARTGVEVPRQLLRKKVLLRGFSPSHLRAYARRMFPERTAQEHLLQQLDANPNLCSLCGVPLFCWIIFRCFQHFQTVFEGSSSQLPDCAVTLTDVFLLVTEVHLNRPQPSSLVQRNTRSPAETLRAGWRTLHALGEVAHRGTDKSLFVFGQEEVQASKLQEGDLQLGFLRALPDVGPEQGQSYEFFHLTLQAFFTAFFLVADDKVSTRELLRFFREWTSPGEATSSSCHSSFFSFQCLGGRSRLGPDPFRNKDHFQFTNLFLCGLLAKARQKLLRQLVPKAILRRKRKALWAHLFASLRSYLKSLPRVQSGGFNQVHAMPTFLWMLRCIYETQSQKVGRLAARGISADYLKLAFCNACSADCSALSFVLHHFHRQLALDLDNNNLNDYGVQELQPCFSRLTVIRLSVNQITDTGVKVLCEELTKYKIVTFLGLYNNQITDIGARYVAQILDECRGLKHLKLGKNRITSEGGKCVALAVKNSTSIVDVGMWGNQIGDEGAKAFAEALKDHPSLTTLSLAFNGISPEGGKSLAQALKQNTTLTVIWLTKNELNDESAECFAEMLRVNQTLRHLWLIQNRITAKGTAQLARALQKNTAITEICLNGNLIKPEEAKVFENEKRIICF
Put plainly: NOD1 functional agonist assay, 293mNOD1-SEAP reporter cells. It is filed as cell-based. The following applies: 293mNOD1 cells, OD above 3*O.D of negative control. The method, boiled down:
as §1

Another test relates to DSS-induced colitis. Put plainly: Dextran Sulfate Sodium (DSS)-induced colitis mouse model. The following applies: 2% DSS in drinking water 7 days; 25 μg i.p. on days 0, 1, 2, 4 and 6; FIG. 3. It is filed as in vivo, mice. As for the experimental part:
As provides in FIG. 3, mice were given water or 2% DSS in their drinking water for 7 days and were treated i.p. with either PBS, vehicle or 25 μg compound of Example 29 (Ex.29) on days 0, 1, 2, 4 and 6 of the experiment. (3A) Body weights were recorded daily. (3B) Mice were sacrificed on day 7 and colon lengths were measured (mean±SE; n=6). (3C) Total mRNA were extracted from the colons on day 7 and the relative expression (RE) of the M2 macrophage markers Relma, and the M1 macrophage markers Ptgs2 (Cox2) and Nos2 were quantified by qPCR (mean±SE; n=6). *, P<0.05; and **, P<0.01 versus DSS+vehicle treated mice.

The next test concerns EAE in C57BL/6 mice. Put plainly: Experimental Autoimmune Encephalomyelitis (EAE) model. The test is classed as in vivo. Conditions: for EAE-associated weight loss / clinical course of EAE: treated mice, FIG. 1C. An excerpt:
EAE is induced in C57BL/6 mice by immunization with an emulsion of MOG35-55 or MOG1-125 in complete Freund's adjuvant (CFA), followed by administration of pertussis toxin (PT) in PBS, first on the day of immunization and then again the following day.

In test [2] the test system is DSS-induced inflammation in the colon. In words: DSS-induced inflammation in the colon model. Conditions: 2% DSS in drinking water 7 days; 25 μg i.p. on days 0, 1, 2, 4 and 6; FIG. 4. It is filed as in vivo, mice. As for the experimental part:
Mice were given water or 2% DSS in their drinking water for 7 days and were treated i.p. with either PBS, vehicle or 25 μg compound of Example 29 (Ex.29) on days 0, 1, 2, 4 and 6 of the experiment. Mice were sacrificed on day 7 and colon sections were prepared and stained with H&E.
Arrows indicate areas of severe inflammatory pathology.

For the compound `CCCCCCCCCCCCCC(=O)N[C@@H](C)C(=O)N[C@H](CCC(=O)N[C@H](CSC[C@H](N)C(=O)O)C(=O)NCC(=O)O)C(=O)O` [Example 29, N^5-((S)-3-(((R)-2-amino-2-carboxyethyl)thio)-1-((carboxymethyl)amino)-1-oxopropan-2-yl)-N^2-(tetradecanoyl-L-alanyl)-D-glutamine], the “numbers of LPM in the peritoneal cavity” value in test [1] was “significantly increased”. Besides, the “hNod1: concentration where a significant mean optical density (OD) can be observed” value on human NOD1 was determined as 0.0001 µg/mL. Also, the “production of IL-10 by PEC” value in the test with PEC is given as “induced the production of significant concentrations of IL-10”. Moreover, the “mNod1: concentration where a significant mean optical density (OD) can be observed” value on murine NOD1 was found to be 0.001 µg/mL. In the test with DSS-induced colitis, the “protection against DSS-induced colitis” value was “protects mice against DSS-induced colitis”. Moreover, in the test with EAE in C57BL/6 mice, the EAE-associated weight loss entry is “prevented associated weight loss” and the “clinical course of EAE” value is “significantly attenuated”. For the same compound, the “protection against DSS-induced inflammation in the colon” value in test [2] was “protects mice against DSS-induced inflammation in the colon”.

Turning to `CCCCCCC(=O)N[C@H](CCC(=O)N[C@H](CSC[C@H](N)C(=O)O)C(=O)N[C@H](C)C(=O)O)C(=O)O` [Example 15, N^5-((S)-3-(((R)-2-amino-2-carboxyethyl)thio)-1-(((R)-1-carboxyethyl)amino)-1-oxopropan-2-yl)-N^2-heptanoyl-D-glutamine], in test [1], the “numbers of LPM in the peritoneal cavity” value is recorded as “significantly increased”. In addition, the “hNod1: concentration where a significant mean optical density (OD) can be observed” value on human NOD1 came out at 0.01 µg/mL. For the same compound, the “production of IL-10 by PEC” value in the test on PEC is on record as “induced the production of significant concentrations of IL-10”. At murine NOD1, the “mNod1: concentration where a significant mean optical density (OD) can be observed” value came out at 0.01 µg/mL. The “EAE attenuation in WT mice” value with EAE in C57BL/6 mice (WT mice, FIG. 2) is “significantly attenuated”. Moreover, the “onset of EAE” value in the test on EAE in C57BL/6 mice (treated IL-10−/− mice versus untreated WT or IL-10−/− mice, FIG. 2) is recorded as “slightly later onset”. In the test on EAE in C57BL/6 mice (treated IL-10−/− mice, FIG. 2), the “mice that developed EAE” value is reported as 100%. Also, the “mice with any symptoms of EAE” value in the test on EAE in C57BL/6 mice (treated WT mice, FIG. 2) is listed as “one of 6”. Besides, in the test on EAE in C57BL/6 mice, the EAE-associated weight loss result was “prevented associated weight loss” and the “clinical course of EAE” value is listed as “significantly attenuated”.
